Source: patent publication US20250213550A1, “COMPOUNDS AND METHODS FOR TREATING INFLAMMATORY BOWEL DISEASE” (Gilead Sciences, Inc., priority 2023, published 2025)

Test: Drug-drug interaction: Compound 1 on PK of combined oral contraceptive DRSP/EE
Assay type: in vivo, human
Settings: co-administration of Compound 1 (600 mg) with DRSP/EE, relative to DRSP/EE alone
Protocol: A Phase 1, open-label, single-center, multiple-cohort study was conducted to evaluate the effect of a mixed OATP/P-gp inhibitor (cyclosporine A; CsA) or food on the PK of Compound 1, the effect of Compound 1 on the PK of midazolam (MDZ), the effect of Compound 1 on the PK of OATP/CYP3A/BCRP substrates using atorvastatin (ATV), pravastatin (PRA), and rosuvastatin (ROS), and the effect of Compound 1 on the PK of a representative combined oral contraceptive (drospirenone/ethinyl estradiol; DRSP/EE), in healthy participants. 70 participants ages 18 to 55 years (inclusive) and having BMI of ≥18.0 kg/m^2 and ≤30.0 kg/m^2 were enrolled. For Cohorts 1-3, there were an approximately even distribution of healthy participants assigned male at birth and nonpregnant, nonlactating participants assigned female at birth. Cohort 4 included only healthy, nonpregnant, nonlactating participants assigned female at birth.
Participants in Cohort 4 received treatment sequence OPQR.
Treatment O: Single dose of DRSP 3 mg and EE 0.02 mg, administered under fasting condition on Day 1 of Period 1 […]
Concentrations of Compound 1 and its active metabolites Compound A and Compound B, MDZ and its metabolite 1-OH-MDZ, ATV and its metabolite 2-OH-ATV, PRA, ROS, DRSP, and EE in plasma PK samples were determined by validated high performance liquid chromatography tandem mass spectrometry (LC-MS/MS) bioanalytical methods.

Compound: Cn1ccc2c([C@@H](c3cn(C45CC(C4)C5)nn3)N(C(=O)OCOP(=O)(O)O)c3cc(Cl)c4ncc(C#N)c(NCC(C)(C)C)c4c3)cccc2c1=O [Compound 1]
- change in AUCinf of DRSP: no change
- change in Cmax of EE: no change
